One block for each molecule: values may come before it.
Columns and labels:
[1] = target: GST-RhoBTB3 Rho domain (residues 1-220) (Homo sapiens, UniProt O94955, N138D); assay: [γ-32P]ATP hydrolysis; type: biochemical; details: MgCl2; labelled compound; 20 nM protein
[2] = target: T1, TIP47 (endogenous, K562) (human (endogenous in K562)), O60664; assay: native gel or EMSA; details: remark: other sources report otherwise
T1 chain: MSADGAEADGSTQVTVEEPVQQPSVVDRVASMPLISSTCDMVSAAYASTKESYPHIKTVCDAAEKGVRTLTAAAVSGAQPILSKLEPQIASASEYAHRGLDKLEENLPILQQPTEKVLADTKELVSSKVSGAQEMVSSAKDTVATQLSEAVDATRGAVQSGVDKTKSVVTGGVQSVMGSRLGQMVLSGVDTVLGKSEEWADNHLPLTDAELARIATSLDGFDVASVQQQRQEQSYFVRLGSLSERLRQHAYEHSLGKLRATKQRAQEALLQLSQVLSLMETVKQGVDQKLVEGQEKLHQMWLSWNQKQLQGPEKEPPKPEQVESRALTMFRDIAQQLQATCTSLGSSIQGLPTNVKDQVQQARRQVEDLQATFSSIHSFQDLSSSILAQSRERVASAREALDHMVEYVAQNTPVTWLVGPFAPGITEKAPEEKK

Chain of GST-RhoBTB3 Rho domain (residues 1-220) (O94955 1-220 N138D): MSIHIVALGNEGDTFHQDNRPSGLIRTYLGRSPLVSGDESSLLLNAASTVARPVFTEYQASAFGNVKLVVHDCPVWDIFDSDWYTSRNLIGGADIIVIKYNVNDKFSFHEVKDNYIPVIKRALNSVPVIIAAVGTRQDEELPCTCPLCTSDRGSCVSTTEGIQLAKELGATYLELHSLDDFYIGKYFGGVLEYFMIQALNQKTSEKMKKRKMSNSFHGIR

Molecule: Nc1ncnc2c1ncn2[C@@H]1O[C@H](COP(=O)(O)OP(=O)(O)OP(=O)(O)O)[C@@H](O)[C@H]1O [ATP]
[γ-32P]ATP hydrolysis [1]: reverted to the D found in most other small GTPases (N138D), significantly less binding

stoichiometry N [2]: 2
B1: TIP47 (endogenous, K562), O60664 1-434 (natural protein)
chain: T1 chain
